Our source for the IC50 values is patent US20180244660A1, “CYCLOPROPYLDERIVATIVES AND THEIR USE AS KINASE INHIBITORS” (Karyopharm Therapeutics Inc., priority 2015, published 2018).

As a reminder, the IC50 is the point on the concentration scale where inhibition reaches its midpoint.

Like-named read-outs stand apart in the source and are kept apart here. Where only a bound is given, the exact number is not on record here.

Assay [1] has as its system 3T3 cells. Briefly: MTT cell proliferation assay, 3T3 cells. It counts as cell-based, mouse. To be noted: 3T3 fibroblast cells, incubation approximately 64-72 hours. The protocol:
(§1) The MTT cell proliferation assay was used to study the cytotoxic properties of the compounds. The assay was performed according to the method described by Roche Molecular Biochemicals, with minor modifications. The assay is based on the cleavage of the tetrazolium salt, MTT, in the presence of an electron-coupling reagent. The water-insoluble formazan salt produced must be solubilized in an additional step. Cells grown in a 96-well tissue culture plate were incubated with the MTT solution for approximately 4 hours. After this incubation period, a water-insoluble formazan dye formed. After solubilization, the formazan dye was quantitated using a scanning multi-well spectrophotometer (ELISA reader). […] The cells were seeded at 5,000-10,000 cells in each well of 96-well plate in 100 μL of fresh culture medium and were allowed to attach overnight. The stock solutions of the compounds were diluted in 100 μL cell culture medium to obtain eight concentrations of each test compound, ranging from 1 nM to 30 μM. […] All optical densities were measured at 490 nm using a Vmax Kinetic Microplate Reader (Molecular Devices). In most cases, the assay was performed in duplicate and the results were presented as a mean percent inhibition to the negative control+SE. The following formula was used to calculate the percent of inhibition: Inhibition (%)=(1−(ODo/OD))×100.
(§2) The compounds were tested against MS751, Z138 and 3T3 cells. The MS751 cell line is derived from a metastasis to lymph node of human cervix from a patient diagnosed with squameous cell carcinoma of the cervix. The Z138 cell line is a mature B-cell acute lymphoblastic leukemia cell line derived from a patient with chronic lumphocytic leukemia. 3T3 cells are standard fibroblast cells; they were originally isolated from Swiss mouse embryo tissue.

In assay [2] the test system is MS751 cells. Briefly: MTT cell proliferation assay, MS751 cells. Format: cell-based, human. To be noted: incubation approximately 64-72 hours, read-out: MTT Assay IC50 MS 751. As for the experimental part:
as §1, §2
For orientation: Tetrazolium dyes change colour on reduction, which living cells bring about.

For assay [3], the system named is Z138 cells. Briefly: MTT cell proliferation assay, Z138 cells. It counts as cell-based, human. As for the experimental part:
as §1, §2

[4] abbreviates: Homo sapiens, Z-138, incubation approximately 64-72 hours.

As to `Nc1ccc([C@H]2C[C@@H]2C(=O)NCCc2cc3cc(-c4ccc(C(=O)N5CCC(F)(F)CC5)cc4)cc(-c4ccc(F)cc4)c3o2)cn1` [Compound K019, (1S,2S)-2-(6-aminopyridin-3-yl)-N—(2-(5-(4-(4,4-difluoropiperidine-1-carbonyl)phenyl)-7-(4-fluorophenyl)benzofuran-2-yl)ethyl)cyclopropanecarboxamide], the IC50 in assay [1] (Mus musculus, NIH3T3) is 1 to 5 µM; in assay [2] (Homo sapiens), < 1 µM; in assay [3] (setting [4]), < 1 µM.

As for `Nc1ccc([C@H]2C[C@@H]2C(=O)NCc2cc3cc(-c4ccc(C(=O)N5CC(F)C5)cc4)cc(-c4ccc(F)cc4)c3o2)cn1` [Compound K020, (1S,2S)-2-(6-aminopyridin-3-yl)-N—((5-(4-(3-fluoroazetidine-1-carbonyl)phenyl)-7-(4-fluorophenyl)benzofuran-2-yl)methyl)cyclopropanecarboxamide], the IC50 is 1 to 5 µM in assay [1] (Mus musculus, NIH3T3); < 1 µM in assay [2] (Homo sapiens); < 1 µM in assay [3] (setting [4]).

On to `Nc1ccc([C@H]2C[C@@H]2C(=O)NCc2nc3cc(-c4ccc(C(=O)N5CCC(F)(F)CC5)cc4)cc(-c4ccc(F)cc4)c3o2)cn1` [Compound K021, (1S,2S)-2-(6-aminopyridin-3-yl)-N—((5-(4-(4,4-difluoropiperidine-1-carbonyl)phenyl)-7-(4-fluorophenyl)benzo[d]oxazol-2-yl)methyl)cyclopropanecarboxamide], for which the IC50 in assay [1] (Mus musculus, NIH3T3) was > 10 µM; in assay [2] (Homo sapiens) it was > 10 µM; in assay [3] (setting [4]), > 10 µM.

With `Nc1ccc([C@H]2C[C@@H]2C(=O)NCc2cc3cc(-c4ccc(C(=O)N5CCC(F)(F)CC5)cc4)cc(-c4ccc(F)cc4)c3[nH]2)cn1` [Compound K022, (1S,2S)-2-(6-aminopyridin-3-yl)-N—((5-(4-(4,4-difluoropiperidine-1-carbonyl)phenyl)-7-(4-fluorophenyl)-1H-indol-2-yl)methyl)cyclopropanecarboxamide], the IC50 in assay [1] (Mus musculus, NIH3T3) is > 10 µM; in assay [2] (Homo sapiens), 1 to 5 µM; in assay [3] (setting [4]), 5 to 10 µM.

Take `Cn1c(CNC(=O)[C@H]2C[C@@H]2c2ccc(N)nc2)cc2cc(-c3ccc(C(=O)N4CCC(F)(F)CC4)cc3)cc(-c3ccc(F)cc3)c21` [Compound K023, (1S,2S)-2-(6-aminopyridin-3-yl)-N—((5-(4-(4,4-difluoropiperidine-1-carbonyl)phenyl)-7-(4-fluorophenyl)-1-methyl-1H-indol-2-yl)methyl)cyclopropanecarboxamide]: the IC50 in assay [1] (Mus musculus, NIH3T3) is > 10 µM; in assay [2] (Homo sapiens), 1 to 5 µM; in assay [3] (setting [4]), 1 to 5 µM.

As to `Nc1ccc([C@H]2C[C@@H]2C(=O)NCc2cc3cc(-c4ccc(C(=O)N5CC(F)C5)cc4F)cc(-c4ccc(F)cc4)c3o2)cn1` [Compound K024, (1S,2S)-2-(6-aminopyridin-3-yl)-N—((5-(2-fluoro-4-(3-fluoroazetidine-1-carbonyl)phenyl)-7-(4-fluorophenyl)benzofuran-2-yl)methyl)cyclopropanecarboxamide], the IC50 in assay [1] (Mus musculus, NIH3T3) was < 1 µM; in assay [2] (Homo sapiens), < 1 µM; in assay [3] (setting [4]) it was < 1 µM.

For the compound `Nc1ccc([C@H]2C[C@@H]2C(=O)NCc2cnc(-c3ccc(-c4ccc(C(=O)N5CC(F)(F)C5)cc4)cc3C(F)(F)F)o2)cn1` [Compound K025, (1S,2S)-2-(6-aminopyridin-3-yl)-N—((2-(4′-(3,3-difluoroazetidine-1-carbonyl)-3-(trifluoromethyl)biphenyl-4-yl)oxazol-5-yl)methyl)cyclopropanecarboxamide], the IC50 in assay [1] (Mus musculus, NIH3T3) was > 10 µM; in assay [2] (Homo sapiens), 1 to 5 µM; in assay [3] (setting [4]), 1 to 5 µM.

Take `[2H]c1c(CNC(=O)[C@H]2C[C@@H]2c2ccc(N)nc2)oc2c(-c3ccc(F)cc3)cc(-c3ccc(C(=O)N4CC(F)C4)cc3)cc12` [Compound K026, (1S,2S)-2-(6-aminopyridin-3-yl)-N—((3-deutero-5-(4-(3-fluoroazetidine-1-carbonyl)phenyl)-7-(4-fluorophenyl)benzofuran-2-yl)methyl)cyclopropanecarboxamide]: the IC50 in assay [1] (Mus musculus, NIH3T3) was 1 to 5 µM; in assay [2] (Homo sapiens) it was < 1 µM; in assay [3] (setting [4]), < 1 µM.

Consider `Nc1ccc([C@H]2C[C@@H]2c2nc(-c3cc4cc(-c5ccc(C(=O)N6CC(F)C6)cc5)cc(-c5ccc(F)cc5)c4o3)co2)cn1` [Compound K029, (4-(2-(2-((1S,2S)-2-(6-aminopyridin-3-yl)cyclopropyl)oxazol-4-yl)-7-(4-fluorophenyl)benzofuran-5-yl)phenyl)(3-fluoroazetidin-1-yl)methanone], for which the IC50 in assay [1] (Mus musculus, NIH3T3) was > 10 µM; in assay [2] (Homo sapiens), 1 to 5 µM; in assay [3] (setting [4]), 1 to 5 µM.

With “(1S,2S)-2-(6-aminopyridin-3-yl)-N—((7-chloro-5-(4-(3,3-difluoroazetidine-1-carbonyl)phenyl)-2,3-dihydrobenzofuran-2-yl)methyl)cyclopropanecarboxamide [Compound K028]”, the IC50 in assay [1] was > 10 µM; in assay [2], < 1 µM; in assay [3] (incubation approximately 64-72 hours, read-out: MTT Assay IC50 Z-138), < 1 µM.
